Literature values as cited in patent US8207376B2, “Method for producing amino acid phosphates” (priority 2006, dated 2012).

Key:
[1] = as reported in JP-A-2006-182753
[2] = as reported in JP-A-2006-182753; remark: listed apart in the source
[3] = heating; known property

Structure (SMILES): NCC(=O)CCC(=O)O.O=P(O)(O)O [δ-aminolevulinic acid phosphate]
- stimulative nature against the skin and tongue [1]: low stimulative nature against the skin and tongue
- permeability through the skin and the like [2]: excellent

Structure (SMILES): Cl.NCC(=O)CCC(=O)O [δ-aminolevulinic acid hydrochloride]
- temperature at which it is completely degraded [3]: ≥ 156 °C
